The record followed here is patent US9840509B2, “Heterocyclic compounds” (CADILA HEALTHCARE LIMITED, priority 2014, dated 2017).

For series [1], the target named is T1, recombinant purified human BTK (Homo sapiens, UniProt Q06187).
T1 construct: purchased SignalChem, USA
In words: In vitro BTK kinase assay on ADP Glo platform. Format: biochemical. Conditions: 2 hr room temperature, read-out: In-vitro BTK inhibitory activity: IC50. On the procedure: Testing of Compounds of the Invention Biological Studies: In vitro BTK Inhibitory Activity Assay:
In vitro BTK inhibitory activity of test compounds were screened using BTK kinase assay on ADP Glo platform (Li, H., Totoritis, R. D., Lor, L. A., Schwartz, B., Caprioli, P., Jurewicz, A. J and Zhang, G., Assay Drug Dev. Technol., 2009, 7(6), 598-605). Briefly, fixed amount of recombinant purified human BTK (3 ng/reaction from SignalChem, USA) were incubated with increasing concentration of test compounds, in 1× kinase reaction buffer (40 mM Tris-Cl, pH7.5, 20 mM MgCl2, 2 mM MnCl2, 0.1 mg/ml BSA and 50 μM DTT). Enzymatic reaction was initiated by adding a substrate cocktail containing 50 µM of ATP (final concentration) and […] of polyGln4Tyr1 (Signal Chem) in total 25 μl of reaction, in round bottom white 96 well plate. The reaction mixture was incubated at room temperature for 2 hr. After 2 hr of incubation, 10 μl of the reaction mix was mixed with […] of ADP Glo reagent, in another round bottom white 96 well plate and incubated at room temperature for 40 min. This was followed by addition of kinase detection reagent (20 μl per reaction) and incubation at room temperature for 30 min. Finally, plate was read for luminescence at an integration time of 500 millisecond per well. Data were plotted taking Enzyme with no inhibitor set as the 100% kinase activity and for dose response curve, % Kinase activity was plotted against conc on Log scale and IC50 was determined by non linear curve fitting method using GraphPad Prism software 6. The in vitro BTK inhibitory activity (IC50) for representative compounds are listed in […]

The next series concerns the target T2, CYP 2C19 (Homo sapiens, UniProt P33261).
T2 construct: from tissue; host or cells: human liver microsomes
In words: CYP inhibition in human liver microsomes, 2C19. It is filed as in vitro ADME. The following applies: pH 7.4, @ 10 μM concn. On the procedure:
(§1) CYP Inhibition Studies: CYP inhibition studies were performed with test compounds, at two concentrations ([…] and 10 μM), using human liver microsomes (Yao, M., Zhu, M., Sinz, M. W., Zhang, H., Humphreys, W. F., Rodrigues, A. D and Dai, R., Journal of Pharmaceutical and Biomedical Analysis, 2007, 44, 211-223; Walsky, R. L and Obach, R. S., Drug Metab. Dispos., 2004, 32, 647-660). Human liver microsomes were mixed with 100 mM phosphate buffer (pH 7.4) and probe substrate and warmed to […] in microcentrifuge tubes. Aliquots of this mixture (499 μL) were transferred to each pre-labeled microcentrifuge tubes, followed by addition of the 1 μL of inhibitors (test compound/CYP-specific positive control inhibitor) or control solvent (DMSO). Aliquots of this mixture (90 μL) were transferred to each pre-labeled microcentrifuge tubes in duplicate. Final solvent concentrations were 0.2% (v/v) or less. Incubations were commenced with the addition of 10 μL NADPH stock (assay concentration, 1 mM) to a final incubation volume of 100 μL and incubated in shaking water bath (at 37° C. and 100 rpm), for the period defined in Tables 1. Incubations were terminated by addition of 400 μL of termination solvent (CH3CN) containing internal standard. The terminated samples were vortex-mixed, centrifuged at 10000 rpm for 5 min and supernatant transferred into HPLC vials for LC-MS/MS analysis to monitor metabolites produced by marker CYP reactions. […] Animals

Another series concerns the target T3, CYP 1A2 (Homo sapiens, UniProt P05177).
T3 construct: from tissue; host or cells: human liver microsomes
T3 sequence (P05177 1-516): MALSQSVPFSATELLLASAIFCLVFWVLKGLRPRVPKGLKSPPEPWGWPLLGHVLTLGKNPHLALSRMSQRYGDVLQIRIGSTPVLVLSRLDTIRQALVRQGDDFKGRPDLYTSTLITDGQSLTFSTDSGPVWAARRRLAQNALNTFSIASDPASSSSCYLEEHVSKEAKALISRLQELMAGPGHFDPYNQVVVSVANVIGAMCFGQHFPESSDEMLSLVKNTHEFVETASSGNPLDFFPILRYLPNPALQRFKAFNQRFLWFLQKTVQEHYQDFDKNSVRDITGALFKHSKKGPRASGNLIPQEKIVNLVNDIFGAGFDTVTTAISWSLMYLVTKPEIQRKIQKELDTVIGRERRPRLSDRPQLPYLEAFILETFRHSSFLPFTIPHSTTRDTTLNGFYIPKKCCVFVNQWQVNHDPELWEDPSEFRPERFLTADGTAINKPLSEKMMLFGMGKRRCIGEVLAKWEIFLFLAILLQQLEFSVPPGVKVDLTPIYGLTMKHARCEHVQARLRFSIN
In words: CYP inhibition in human liver microsomes, 1A2. It is filed as in vitro ADME. Conditions: pH 7.4, @ 10 μM concn. How it is done: as §1
For orientation: Liver microsomes are vesicles of endoplasmic reticulum, rich in cytochrome P450 enzymes.

A further series deals with T4, CYP 2C9 (Homo sapiens, UniProt P11712).
T4 construct: from tissue; host or cells: human liver microsomes
T4 sequence (P11712 whole entry): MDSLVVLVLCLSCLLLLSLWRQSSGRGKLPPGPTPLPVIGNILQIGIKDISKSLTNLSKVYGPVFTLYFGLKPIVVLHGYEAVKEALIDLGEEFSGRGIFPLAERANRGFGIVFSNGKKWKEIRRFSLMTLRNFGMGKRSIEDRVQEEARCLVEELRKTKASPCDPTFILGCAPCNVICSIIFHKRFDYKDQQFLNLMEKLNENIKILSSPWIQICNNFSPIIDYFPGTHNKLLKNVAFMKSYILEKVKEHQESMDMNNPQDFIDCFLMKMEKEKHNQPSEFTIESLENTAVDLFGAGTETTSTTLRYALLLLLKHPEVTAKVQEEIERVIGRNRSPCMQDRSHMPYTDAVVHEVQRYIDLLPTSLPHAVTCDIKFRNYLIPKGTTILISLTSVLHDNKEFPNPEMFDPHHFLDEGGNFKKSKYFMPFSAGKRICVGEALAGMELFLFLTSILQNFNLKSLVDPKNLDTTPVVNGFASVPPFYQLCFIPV
Nature of the series: CYP inhibition in human liver microsomes, 2C9. Conditions: pH 7.4, @ 10 μM concn. It is filed as in vitro ADME. How it is done: as §1

In another series the target is T5, CYP 2C8 (Homo sapiens, UniProt P10632).
T5 construct: from tissue; host or cells: human liver microsomes
T5 sequence (P10632 1-490): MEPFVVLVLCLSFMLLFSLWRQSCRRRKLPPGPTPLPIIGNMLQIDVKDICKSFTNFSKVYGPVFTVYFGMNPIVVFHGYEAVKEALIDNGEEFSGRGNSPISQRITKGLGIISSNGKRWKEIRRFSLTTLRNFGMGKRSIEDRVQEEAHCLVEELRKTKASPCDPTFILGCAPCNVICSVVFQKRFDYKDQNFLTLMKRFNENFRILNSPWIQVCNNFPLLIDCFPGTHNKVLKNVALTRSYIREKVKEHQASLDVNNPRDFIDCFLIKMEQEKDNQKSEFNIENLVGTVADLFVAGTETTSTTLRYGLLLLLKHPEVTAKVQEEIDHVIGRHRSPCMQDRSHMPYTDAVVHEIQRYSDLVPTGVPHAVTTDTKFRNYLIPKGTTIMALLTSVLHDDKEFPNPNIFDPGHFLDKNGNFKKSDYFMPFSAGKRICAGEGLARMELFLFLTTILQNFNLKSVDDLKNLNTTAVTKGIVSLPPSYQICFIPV
In words: CYP inhibition in human liver microsomes, 2C8. Format: in vitro ADME. The following applies: pH 7.4, @ 10 μM concn. On the procedure: as §1

A further series has as its target T6, CYP 2D6 (Homo sapiens, UniProt P10635).
T6 construct: from tissue; host or cells: human liver microsomes
In words: CYP inhibition in human liver microsomes, 2D6. Format: in vitro ADME. Conditions: pH 7.4, @ 10 μM concn. How it is done: as §1

The target in another series is T7, CYP 3A4 (Homo sapiens, UniProt P08684).
T7 construct: from tissue; host or cells: human liver microsomes
T7 sequence (P08684 whole entry): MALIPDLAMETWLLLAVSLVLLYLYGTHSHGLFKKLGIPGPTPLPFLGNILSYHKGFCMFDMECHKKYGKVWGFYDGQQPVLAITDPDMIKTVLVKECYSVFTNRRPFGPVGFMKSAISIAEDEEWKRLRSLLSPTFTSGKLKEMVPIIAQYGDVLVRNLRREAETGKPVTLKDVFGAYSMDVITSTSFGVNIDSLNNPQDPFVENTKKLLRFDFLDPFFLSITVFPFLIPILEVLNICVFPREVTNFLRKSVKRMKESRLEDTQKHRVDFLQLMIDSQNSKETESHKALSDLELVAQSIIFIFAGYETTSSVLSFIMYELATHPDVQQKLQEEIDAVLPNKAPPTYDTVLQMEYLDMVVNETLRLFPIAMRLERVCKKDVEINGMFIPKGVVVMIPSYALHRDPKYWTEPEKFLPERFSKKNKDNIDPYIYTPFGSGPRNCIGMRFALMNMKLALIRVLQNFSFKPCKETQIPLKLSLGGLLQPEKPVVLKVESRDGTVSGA
Nature of the series: CYP inhibition in human liver microsomes, 3A4. Format: in vitro ADME. Conditions: pH 7.4, @ 10 μM concn. How it is done:
as §1

The IC50 is the concentration that inhibits the measured activity by half. As a reminder, the inhibition is the percentage by which the read-out fell short of the control. Lower therefore signals little suppression.

T1 sequence (Q06187 whole entry): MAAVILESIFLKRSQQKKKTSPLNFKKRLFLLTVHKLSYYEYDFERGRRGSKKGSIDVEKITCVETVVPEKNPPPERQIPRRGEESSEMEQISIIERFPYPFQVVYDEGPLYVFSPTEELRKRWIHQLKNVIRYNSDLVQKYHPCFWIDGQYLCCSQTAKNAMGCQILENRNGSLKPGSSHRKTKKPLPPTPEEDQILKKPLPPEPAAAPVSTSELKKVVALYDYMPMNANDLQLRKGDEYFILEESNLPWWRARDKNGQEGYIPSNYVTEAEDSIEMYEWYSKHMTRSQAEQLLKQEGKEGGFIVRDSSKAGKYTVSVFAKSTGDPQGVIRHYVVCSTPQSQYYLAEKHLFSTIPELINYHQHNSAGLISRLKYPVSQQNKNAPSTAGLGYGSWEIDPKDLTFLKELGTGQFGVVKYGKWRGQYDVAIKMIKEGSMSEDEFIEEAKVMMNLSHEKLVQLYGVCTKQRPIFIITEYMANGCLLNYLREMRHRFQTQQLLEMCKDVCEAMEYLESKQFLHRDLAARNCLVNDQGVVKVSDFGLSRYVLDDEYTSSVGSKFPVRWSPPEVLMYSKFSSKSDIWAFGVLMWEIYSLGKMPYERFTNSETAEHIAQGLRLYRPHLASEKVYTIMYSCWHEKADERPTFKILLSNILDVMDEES
T2 sequence (P33261 whole entry): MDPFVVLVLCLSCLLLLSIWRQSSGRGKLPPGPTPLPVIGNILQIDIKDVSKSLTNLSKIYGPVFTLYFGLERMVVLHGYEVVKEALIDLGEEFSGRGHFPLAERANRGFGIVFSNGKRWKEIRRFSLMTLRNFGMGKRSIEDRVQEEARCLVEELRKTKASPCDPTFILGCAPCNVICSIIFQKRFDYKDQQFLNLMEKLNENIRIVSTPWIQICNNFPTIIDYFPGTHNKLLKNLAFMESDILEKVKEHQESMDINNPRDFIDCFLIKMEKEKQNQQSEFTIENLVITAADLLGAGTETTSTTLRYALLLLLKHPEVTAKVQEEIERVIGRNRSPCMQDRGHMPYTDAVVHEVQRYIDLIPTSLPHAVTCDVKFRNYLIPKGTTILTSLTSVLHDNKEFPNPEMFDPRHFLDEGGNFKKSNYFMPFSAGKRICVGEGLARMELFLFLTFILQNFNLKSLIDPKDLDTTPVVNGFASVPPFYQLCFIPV
T6 sequence (P10635 whole entry): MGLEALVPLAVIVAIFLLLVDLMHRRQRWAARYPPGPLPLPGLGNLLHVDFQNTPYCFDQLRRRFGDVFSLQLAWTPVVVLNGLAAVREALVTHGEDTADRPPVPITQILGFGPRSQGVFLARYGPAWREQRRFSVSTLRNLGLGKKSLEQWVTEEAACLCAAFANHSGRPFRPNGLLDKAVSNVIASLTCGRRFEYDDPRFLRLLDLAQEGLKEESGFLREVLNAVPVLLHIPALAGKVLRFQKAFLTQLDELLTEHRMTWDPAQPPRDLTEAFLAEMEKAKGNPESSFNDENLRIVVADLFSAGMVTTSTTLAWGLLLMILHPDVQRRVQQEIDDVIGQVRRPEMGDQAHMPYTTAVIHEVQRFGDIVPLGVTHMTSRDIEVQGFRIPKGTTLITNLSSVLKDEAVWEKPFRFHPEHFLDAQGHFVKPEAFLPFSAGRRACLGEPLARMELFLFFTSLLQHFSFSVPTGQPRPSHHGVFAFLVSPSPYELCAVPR

`C=CC(=O)N1CC2CC(n3nc(-c4ccc5nc(Oc6ccccc6)sc5c4)c4c(N)ncnc43)CC2C1` (stereo not drawn) [Compound 20, 1-(5-(4-amino-3-(2-phenoxybenzo[d]thiazol-6-yl)-1H-pyrazolo [3,4-d]pyrimidin-1-yl)hexahydrocyclopenta[c]pyrrol-2(1H)-yl)prop-2-en-1-one]: the IC50 in series [1] is 223 nM. Also, the inhibition at 10 μM against CYP 2C19 is below 50%; at CYP 1A2 it was below 50%; against CYP 2C9, above 50%; against CYP 2C8 it was above 50%; against CYP 2D6, below 50%; on CYP 3A4 it was above 50%.
As to `CN(C)C/C=C/C(=O)N1CC2CC(n3nc(-c4ccc(C(=O)Nc5cnccn5)cc4)c4c(N)ncnc43)CC2C1` (stereo not drawn) [Compound 49, (E)-4-(4-amino-1-(2-(4-(dimethylamino)but-2-enoyl)octahydrocyclopenta [c]pyrrol-5-yl)-1H-pyrazolo[3,4-d]pyrimidin-3-yl)-N-(pyrazin-2-yl)benzamide], the IC50 in series [1] was 2.5 nM. Besides, the inhibition at 10 μM on CYP 2C19, at CYP 1A2, on CYP 2C9, at CYP 2C8, against CYP 2D6 and on CYP 3A4 was below 50% throughout.
As to `CN(C)C/C=C/C(=O)N1CC2CC(n3nc(-c4ccc(C(=O)Nc5cc(C(F)(F)F)ccn5)cc4)c4c(N)ncnc43)CC2C1` (stereo not drawn) [Compound 51, (E)-4-(4-amino-1-(2-(4-(dimethylamino)but-2-enoyl)octahydrocyclopenta [c]pyrrol-5-yl)-1H-pyrazolo[3,4-d]pyrimidin-3-yl)-N-(4-(trifluoromethyl)pyridine-2-yl)benzamide], in series [1], the IC50 worked out at 100 nM. The inhibition at 10 μM on CYP 2C19 was below 50%; at CYP 1A2 it was below 50%; at CYP 2C9 it was above 50%; on CYP 2C8 it was above 50%; against CYP 2D6, below 50%; against CYP 3A4, above 50%.
On to `C=CC(=O)N1CC2CC(n3nc(-c4ccc(C(=O)Nc5cc(C)ccn5)c(OC)c4)c4c(N)ncnc43)CC2C1` (stereo not drawn) [Compound 29, 4-(1-(2-acryloyloctahydrocyclopenta[c]pyrrol-5-yl)-4-amino-1H-pyrazolo[3,4-d]pyrimidin-3-yl)-2-methoxy-N-(4-methylpyridin-2-yl)benzamide], for which, in series [1], the IC50 turned out to be 1.2 nM. The inhibition at 10 μM at CYP 2C19, against CYP 1A2, against CYP 2C9, on CYP 2C8, against CYP 2D6 and at CYP 3A4 was below 50% each time.
Regarding `C=CC(=O)N1CC2CC(n3nc(-c4ccc5c(c4)oc4ccccc45)c4c(N)ncnc43)CC2C1` (stereo not drawn) [Compound 8, 1-(5-(4-amino-3-(dibenzo[b,d]furan-3-yl)-1H-pyrazolo[3,4-d]pyrimidin-1-yl)hexahydrocyclopenta[c]pyrrol-2(1H)-yl)prop-2-en-1-one], the IC50 in series [1] was 4 nM. Also, the inhibition at 10 μM was above 50% against CYP 2C19; below 50% against CYP 1A2; below 50% against CYP 2C9; below 50% on CYP 2C8; below 50% against CYP 2D6; below 50% against CYP 3A4.
For the compound `C=CC(=O)N1CC2CC(n3nc(-c4ccc(-c5nnc(C)o5)cc4)c4c(N)ncnc43)CC2C1` (stereo not drawn) [Compound 16, 1-(5-(4-amino-3-(4-(5-methyl-1,3,4-oxadiazol-2-yl)phenyl)-1H-pyrazolo[3,4-d]pyrimidin-1-yl)hexahydrocyclopenta[c]pyrrol-2(1H)-yl)prop-2-en-1-one], the IC50 in series [1] came out at 1.7 nM. Besides, the inhibition at 10 μM against CYP 2C19, at CYP 1A2, against CYP 2C9, against CYP 2C8, on CYP 2D6 and at CYP 3A4 was below 50% each time.
On to `C=CS(=O)(=O)N1CC2CC(n3nc(-c4ccc(Oc5ccccc5)cc4)c4c(N)ncnc43)CC2C1` (stereo not drawn) [Compound 18, 3-(4-phenoxyphenyl)-1-(2-(vinylsulfonyl)octahydrocyclopenta[c]pyrrol-5-yl)-1H-pyrazolo[3,4-d]pyrimidin-4-amine], for which the IC50 in series [1] amounted to 218 nM. Moreover, the inhibition at 10 μM against CYP 2C19 is below 50%; on CYP 1A2, below 50%; against CYP 2C9, above 50%; against CYP 2C8, above 50%; at CYP 2D6, below 50%; on CYP 3A4 it was above 50%.
With `C=CC(=O)N1CC2CC(n3nc(-c4ccc(C(=O)Nc5cnccn5)cc4)c4c(N)ncnc43)CC2C1` (stereo not drawn) [Compound 37, 4-(1-(2-acryloyloctahydrocyclopenta[c]pyrrol-5-yl)-4-amino-1H-pyrazolo[3,4-d]pyrimidin-3-yl)-N-(pyrazin-2-yl)benzamide], in series [1], the IC50 amounted to 1 nM. The inhibition at 10 μM on CYP 2C19, against CYP 1A2, against CYP 2C9, against CYP 2C8, on CYP 2D6 and against CYP 3A4 was below 50% in each case.
Turning to `C=CC(=O)N1CC2CN(CCn3nc(-c4ccc(Oc5ccccc5)cc4)c4c(N)ncnc43)CC2C1` (stereo not drawn) [Compound 4, 1-(5-(2-(4-amino-3-(4-phenoxyphenyl)-1H-pyrazolo[3,4-d]pyrimidin-1-yl)ethyl)hexahydropyrrolo[3,4-c]pyrrol-2(1H)-yl)prop-2-en-1-one], in series [1], the IC50 worked out at 2 nM. Besides, the inhibition at 10 μM at CYP 2C19, on CYP 1A2, at CYP 2C9, against CYP 2C8, against CYP 2D6 and on CYP 3A4 was below 50% in each case.
